Source: patent publication US20090041778A1, “Methods And Compositions For The Treatment Of Graft Failure” (priority 2004, published 2009)
Converted amounts (≈) assume the structure as drawn. “Also recorded” adds a separate entry of the source. Counter-ions that a name gives are not always drawn.

Tests used:
[1] = Solubility in aqueous buffer / hydrophilicity; assay type: physicochemical
[2] = cited from earlier work
[3] = system: human aortic vascular smooth muscle cell (HASOM cells); assay: PDGF-induced migration of HASOM cells in a 24-well Boyden chamber; assay type: cell-based
Method: (§1) The cells were then cultured in the presence of these agents for forty-eight hours prior to the migration assay. […] Each well contained an insert with a polycarbonate filter having 8 μm pores. In preparation for the migration assays, the membranes were coated with 0.1% gelatin for 8 hours, aspirated, and allowed to dry for 2 hours.
(§2) The M-199 media containing 0.5% BSA and 20 ng/ml human PDGF-B (hPDGF-BB) was placed in the bottom Boyden chamber. Cells were incubated at 5% CO2 at 37° C. for twelve hours and the cells lying on the upper surface of the membrane were scraped off. The insert membranes were removed and the cells on the lower surface of each membrane were stained with hematoxylin. Cell migration was then quantified by counting the cells in five random high-power fields on the lower surface of the membrane. All assays were run in triplicate.

neointimal hyperplasia = conditions: rabbit carotid artery balloon angioplasty and vein graft intimal hyperplasia models; cited from earlier work
[4] = system: cells of porcine origin from a primary explant of porcine carotid artery; assay: PDGF-induced migration of cells of porcine origin (Boyden chamber); assay type: cell-based; conditions: hPDGF-BB 20 ng/ml; second passage cells; dose dependent
Method: as §1, §2

[5] = system: intimal thickening after balloon angioplasty; conditions: rabbit model; administered systemically; cited from earlier work
[6] = system: neointimal hyperplasia in mouse vein grafts; conditions: administered locally; cited from earlier work

## CO[C@H]1C[C@@H]2CC[C@@H](C)[C@@](O)(O2)C(=O)C(=O)N2CCCC[C@H]2C(=O)O[C@H]([C@H](C)C[C@@H]2CC[C@@H](O)[C@H](OC)C2)CC(=O)[C@H](C)/C=C(\C)[C@@H](O)[C@@H](OC)C(=O)[C@H](C)C[C@H](C)/C=C/C=C/C=C/1C [rapamycin]
[1]
  hydrophilicity: very hydrophilic
[2]
  absorption after oral administration: absorbed rapidly and completely
[3]; Homo sapiens, in vitro VSMC migration, read-out: IC50 for blocking VSMC migration
  IC50: 1 to 5 ng/mL (≈ 1.09 to 5.47 nM)

## COc1cccc(CCc2ccccc2OCC(CN(C)C)OC(=O)CCC(=O)O)c1.Cl (stereo not drawn) [Anplag]
Neointimal hyperplasia
  prevention of neointimal hyperplasia: effective

## Cc1ccc(NC(=O)c2ccc(CN3CCN(C)CC3)cc2)cc1Nc1nccc(-c2cccnc2)n1 [Gleevec, imatinib mesylate]
[3]; hPDGF-BB 20 ng/ml, 48 h drug pre-treatment, 12 h migration, dose dependent
  inhibition of PDGF induced migration of HASOM cells: potently inhibited; also recorded: inhibited migration
[4]
  inhibition of PDGF-B induced migration of porcine cells: inhibited

## O=C(c1ccc(F)cc1)C1CCN(CCn2c(=O)[nH]c3ccccc3c2=O)CC1 [Ketanserin]
Neointimal hyperplasia
  prevention of neointimal hyperplasia: effective

## Cc1ccc(C(=O)Nc2ccc(S(=O)(=O)O)c3cc(S(=O)(=O)O)cc(S(=O)(=O)O)c23)cc1NC(=O)c1cccc(NC(=O)Nc2cccc(C(=O)Nc3cc(C(=O)Nc4ccc(S(=O)(=O)O)c5cc(S(=O)(=O)O)cc(S(=O)(=O)O)c45)ccc3C)c2)c1 [Suramin]
[5]
  inhibition of intimal thickening after balloon angioplasty: inhibit intimal thickening
[6]
  inhibition of neointimal hyperplasia in mouse vein grafts: effective
